Results published in ChEMBL document CHEMBL3885881, “DrugMatrix”.

Organism: Rattus norvegicus
Experiment: DrugMatrix - Regimen: Daily Repeat
Type: toxicity, organism-based, Sprague-Dawley
Set-up: regimen Daily Repeat, gender Male, age 6-8 weeks
Conditions: in vivo, po, route oral GAVAGE, vehicle .5 % CMC; for ABSOLUTE BASOPHIL / ABSOLUTE EOSINOPHIL / ABSOLUTE LYMPHOCYTE / ABSOLUTE MONOCYTE / ABSOLUTE SEGMENTED NEUTROPHIL / BASOPHIL / EOSINOPHIL / ERYTHROCYTE COUNT / HEMATOCRIT / HEMOGLOBIN / LEUKOCYTE COUNT / LYMPHOCYTE / MEAN CORPUSCULAR HEMOGLOBIN / MEAN CORPUSCULAR HEMOGLOBIN CONCENTRATION / MEAN CORPUSCULAR VOLUME / MONOCYTE / NEUTROPHIL / NUCLEATED RED BLOOD CELLS / PLATELET COUNT: tissue Blood; for ALANINE AMINOTRANSFERASE / ALBUMIN / ALKALINE PHOSPHATASE / ASPARTATE AMINOTRANSFERASE / BLOOD UREA NITROGEN / CARBON DIOXIDE / CHLORIDE / CHOLESTEROL / CREATINE PHOSPHOKINASE / CREATININE / GLUCOSE / LACTATE DEHYDROGENASE / LIPASE / PHOSPHORUS / POTASSIUM / SODIUM / TOTAL BILIRUBIN / TOTAL PROTEIN / URIC ACID: tissue Plasma
[1] = 10 mg/kg, 120 h, dose level Low, time 5 day
[2] = 63 mg/kg, 72 h, dose level High, time 3 day
[3] = 63 mg/kg, 120 h, dose level High, time 5 day

COc1c(C)c2c(c(O)c1C/C=C(\C)CCC(=O)OCCN1CCOCC1)C(=O)OC2 [MYCOPHENOLATE MOFETIL]
ABSOLUTE BASOPHIL [1]: 0 CELLS/uL
ABSOLUTE EOSINOPHIL [1]: 90 CELLS/uL
ABSOLUTE LYMPHOCYTE [1]: 13218.67 CELLS/uL
ABSOLUTE MONOCYTE [1]: 116.67 CELLS/uL
ABSOLUTE SEGMENTED NEUTROPHIL [1]: 1408 CELLS/uL
BASOPHIL [1]: 0%
EOSINOPHIL [1]: 0.67%
ERYTHROCYTE COUNT [1]: 5.48 x10E6/uL
HEMATOCRIT [1]: 34.27%
HEMOGLOBIN [1]: 13.7 G/DL
LEUKOCYTE COUNT [1]: 14.83 x10E3/uL
LYMPHOCYTE [1]: 89.33%
MEAN CORPUSCULAR HEMOGLOBIN [1]: 25 pg
MEAN CORPUSCULAR HEMOGLOBIN CONCENTRATION [1]: 40.03 G/DL
MEAN CORPUSCULAR VOLUME [1]: 62.53 fL
MONOCYTE [1]: 0.67%
NEUTROPHIL [1]: 9.33%
NUCLEATED RED BLOOD CELLS [1]: 0 /100WBC
PLATELET COUNT [1]: 1214 x10E3/uL
ALANINE AMINOTRANSFERASE [1]: 55.67 u/L
ALBUMIN [1]: 4.17 G/DL
ALKALINE PHOSPHATASE [1]: 364.33 u/L
ASPARTATE AMINOTRANSFERASE [1]: 99.67 u/L
BLOOD UREA NITROGEN [1]: 13.67 mg/dL
CARBON DIOXIDE [1]: 31.33 mmol/L
CHLORIDE [1]: 102.67 MEQ/L
CHOLESTEROL [1]: 61.67 mg/dL
CREATINE PHOSPHOKINASE [1]: 341.67 u/L
CREATININE [1]: 0.2 mg/dL
GLUCOSE [1]: 141 mg/dL
LACTATE DEHYDROGENASE [1]: 409.33 u/L
LIPASE [1]: 9.67 u/L
PHOSPHORUS [1]: 11.87 mg/dL
POTASSIUM [1]: 6.19 MEQ/L
SODIUM [1]: 144.83 MEQ/L
TOTAL BILIRUBIN [1]: 0.1 mg/dL
TOTAL PROTEIN [1]: 5.8 G/DL
URIC ACID [1]: 1.37 mg/dL
ABSOLUTE BASOPHIL [2]: 0 CELLS/uL
ABSOLUTE EOSINOPHIL [2]: 0 CELLS/uL
ABSOLUTE LYMPHOCYTE [2]: 8638 CELLS/uL
ABSOLUTE MONOCYTE [2]: 62 CELLS/uL
ABSOLUTE SEGMENTED NEUTROPHIL [2]: 300 CELLS/uL
BASOPHIL [2]: 0%
EOSINOPHIL [2]: 0%
ERYTHROCYTE COUNT [2]: 4.81 x10E6/uL
HEMATOCRIT [2]: 32.3%
HEMOGLOBIN [2]: 12.6 G/DL
LEUKOCYTE COUNT [2]: 9 x10E3/uL
LYMPHOCYTE [2]: 96%
MEAN CORPUSCULAR HEMOGLOBIN [2]: 26.2 pg
MEAN CORPUSCULAR HEMOGLOBIN CONCENTRATION [2]: 39 G/DL
MEAN CORPUSCULAR VOLUME [2]: 67.17 fL
MONOCYTE [2]: 0.67%
NEUTROPHIL [2]: 3.33%
NUCLEATED RED BLOOD CELLS [2]: 0.33 /100WBC
PLATELET COUNT [2]: 1141.33 x10E3/uL
ALANINE AMINOTRANSFERASE [2]: 32.67 u/L
ALBUMIN [2]: 4.13 G/DL
ALKALINE PHOSPHATASE [2]: 373.33 u/L
ASPARTATE AMINOTRANSFERASE [2]: 70.33 u/L
BLOOD UREA NITROGEN [2]: 14.33 mg/dL
CARBON DIOXIDE [2]: 28.67 mmol/L
CHLORIDE [2]: 102.33 MEQ/L
CHOLESTEROL [2]: 78.67 mg/dL
CREATINE PHOSPHOKINASE [2]: 199.67 u/L
CREATININE [2]: 0.16 mg/dL
GLUCOSE [2]: 161.67 mg/dL
LACTATE DEHYDROGENASE [2]: 310.33 u/L
LIPASE [2]: 9.67 u/L
PHOSPHORUS [2]: 11.63 mg/dL
POTASSIUM [2]: 6.25 MEQ/L
SODIUM [2]: 143.47 MEQ/L
TOTAL BILIRUBIN [2]: 0.13 mg/dL
TOTAL PROTEIN [2]: 5.6 G/DL
URIC ACID [2]: 1.1 mg/dL
ABSOLUTE BASOPHIL [3]: 0 CELLS/uL
ABSOLUTE EOSINOPHIL [3]: 45.67 CELLS/uL
ABSOLUTE LYMPHOCYTE [3]: 11569 CELLS/uL
ABSOLUTE MONOCYTE [3]: 81.67 CELLS/uL
ABSOLUTE SEGMENTED NEUTROPHIL [3]: 1037 CELLS/uL
BASOPHIL [3]: 0%
EOSINOPHIL [3]: 0.33%
ERYTHROCYTE COUNT [3]: 4.9 x10E6/uL
HEMATOCRIT [3]: 29.73%
HEMOGLOBIN [3]: 12.17 G/DL
LEUKOCYTE COUNT [3]: 12.73 x10E3/uL
LYMPHOCYTE [3]: 91%
MEAN CORPUSCULAR HEMOGLOBIN [3]: 24.83 pg
MEAN CORPUSCULAR HEMOGLOBIN CONCENTRATION [3]: 40.93 G/DL
MEAN CORPUSCULAR VOLUME [3]: 60.7 fL
MONOCYTE [3]: 0.67%
NEUTROPHIL [3]: 8%
NUCLEATED RED BLOOD CELLS [3]: 0 /100WBC
PLATELET COUNT [3]: 1576 x10E3/uL
ALANINE AMINOTRANSFERASE [3]: 40.33 u/L
ALBUMIN [3]: 4.33 G/DL
ALKALINE PHOSPHATASE [3]: 290 u/L
ASPARTATE AMINOTRANSFERASE [3]: 92.67 u/L
BLOOD UREA NITROGEN [3]: 17.33 mg/dL
CARBON DIOXIDE [3]: 27.33 mmol/L
CHLORIDE [3]: 101 MEQ/L
CHOLESTEROL [3]: 76.67 mg/dL
CREATINE PHOSPHOKINASE [3]: 208.67 u/L
CREATININE [3]: 0.15 mg/dL
GLUCOSE [3]: 189.33 mg/dL
LACTATE DEHYDROGENASE [3]: 215.33 u/L
LIPASE [3]: 7 u/L
PHOSPHORUS [3]: 12.23 mg/dL
POTASSIUM [3]: 5.8 MEQ/L
SODIUM [3]: 145 MEQ/L
TOTAL BILIRUBIN [3]: 0.2 mg/dL
TOTAL PROTEIN [3]: 6.07 G/DL
URIC ACID [3]: 1.83 mg/dL
